Measured values published in patent US20160280670A1, “NOVEL COMPOUNDS FOR REGENERATION OF TERMINALLY-DIFFERENTIATED CELLS AND TISSUES” (ACOUSIA THERAPEUTICS GMBH, priority 2013, published 2016).

Tested on: inner ear progenitor cells from the postnatal sensory organ of the mouse (differentiated sensory epithelial patches, "mini ears")
Experiment: Screening assay: EdU proliferation in differentiated inner ear progenitor sphere patches ("mini ears")
Format: cell-based
Details: test item 5 μM for 96 h
Source text: A screening assay was employed according to an experimental protocol that enables the isolation of inner ear progenitor cells from the postnatal sensory organ of the mouse preparations in vitro. These isolated progenitors generate typical spheres that express a comprehensive set of marker genes that define the early developing sensory epithelium in the progenitor cell state. Under appropriate conditions these spheres can differentiate into epithelial patches that express marker genes that are characteristic of differentiating hair cells and supporting cells as found in the native organ of Corti. These differentiated sensory epithelial patches, tagged “mini ears”, can be generated in sufficient numbers for screening purposes in a low-throughput format. For an appropriate read-out, dedifferentiation was detected with three parameters: (i) labelling of Sox2 expression (Sox2=transcription factor SRY (sex determining region Y-box 2), (ii) an increase in the incorporation of EdU indication proliferation (EdU=thymidine analogue 5-Ethynyl2′-deoxyuridine), and (iii) labelling using the hair cell marker Myosin VIIA.
Compounds were screened at a standard concentration of 5 μM. […]
For ease of comparison the number of EdU positive cells was normalized to the DMSO only condition. Thus, the proliferation activity is expressed as “fold EdU positive cells”. […]

Q: What does the source list for `C[C@](N)(Cc1c[nH]c2ccccc12)c1nc(C(=O)NC2CCCCC2)co1.Cl` [Compound 13, (S)-2-(2-amino-1-(1H-indol-3-yl)propan-2-yl)-N-cyclohexyloxazole-4-carboxamide hydrochloride]?
A: Mean percentage of EdU positive cells (EdU for the last 5 hours, patches after 14 days differentiation): 3.59%; Fold EdU positive re DMSO (proliferation activity, "fold EdU positive cells") (number of EdU positive cells normalized to DMSO only condition, hydrochloride): 2.04 fold
